In patent US9695155B2, “Herbicidal substituted pyrimidinyloxy benzene compounds” (E. I. DU PONT DE NEMOURS AND COMPANY, priority 2013, dated 2017):

Assays:
lambsquarters = experiment: Test C postemergence; format: in vivo, Chenopodium album; conditions: for Plant response rating (0 to 100), Lambsquarters: postemergence; for Plant response rating, Lambsquarters: Postemergence, scale 0 to 100 (0 no effect, 100 complete control)
How it was run: (§1)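 Visual ratings on a 0–100 scale (100 = complete control) were made versus untreated controls after 13–15 greenhouse days. Chemicals in a surfactant-containing non-phytotoxic solvent were applied either preemergence to seeds in loam–sand soil or postemergence to 1- to 4-leaf plants 2–18 cm tall.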

soybean = experiment: Test C postemergence; format: in vivo, Glycine max; conditions: for Plant response rating (0 to 100), Soybean: postemergence; for Plant response rating, Soybean: Postemergence, scale 0 to 100 (0 no effect, 100 complete control)
How it was run: as §1

Italian ryegrass = experiment: Test C postemergence; format: in vivo, Lolium multiflorum; conditions: for Plant response rating (0 to 100), Ryegrass, Italian: postemergence; for Plant response rating, Ryegrass, Italian: Postemergence, scale 0 to 100 (0 no effect, 100 complete control)
How it was run: as §1

rice = experiment: Test B flooded paddy test; format: in vivo, Oryza sativa; conditions: Flood, 250 g ai/ha; 0 to 100 scale where 0 is no effect and 100 is complete control
How it was run: (§2)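 Compound added straight to paddy water, with pots kept flooded 3 cm above soil, on plants grown to the 2-leaf stage. Visual scoring 0-100 (100 = complete control) against untreated controls after 13 to 15 greenhouse days.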

wheat = experiment: Test A preemergence; format: in vivo, Triticum aestivum
How it was run: (§3)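 Scoring: eye-based comparison with untreated controls, 0 for no effect through 100 for complete control, at about day 10. Treatments: directed soil spray preemergence; foliar spray postemergence on 2–10 cm plants at the one- to two-leaf stage. Medium: loam soil with sand.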

pigweed = experiment: Test A postemergence; format: in vivo, Amaranthus retroflexus
How it was run: as §3

large (Lg) crabgrass [1] = experiment: Test C postemergence; format: in vivo, Digitaria sanguinalis; conditions: for Plant response rating (0 to 100), Crabgrass, Large: postemergence; for Plant response rating, Crabgrass, Large: Postemergence, scale 0 to 100 (0 no effect, 100 complete control)
How it was run: as §1

blackgrass = experiment: Test C postemergence; format: in vivo, Alopecurus myosuroides; conditions: for Plant response rating (0 to 100), Blackgrass: postemergence; for Plant response rating, Blackgrass: Postemergence, scale 0 to 100 (0 no effect, 100 complete control)
How it was run: as §1

galium = experiment: Test C postemergence; format: in vivo, Galium aparine; conditions: for Plant response rating (0 to 100), Galium: postemergence; for Plant response rating, Galium: Postemergence, scale 0 to 100 (0 no effect, 100 complete control)
How it was run: as §1

ragweed = experiment: Test C postemergence; format: in vivo, Ambrosia elatior; conditions: for Plant response rating (0 to 100), Ragweed: postemergence; for Plant response rating, Ragweed: Postemergence, scale 0 to 100 (0 no effect, 100 complete control)
How it was run: as §1

barnyardgrass [2] = experiment: Test C postemergence; format: in vivo, Echinochloa crus-galli; conditions: for Plant response rating (0 to 100), Barnyardgrass: postemergence; for Plant response rating, Barnyardgrass: Postemergence, scale 0 to 100 (0 no effect, 100 complete control)
How it was run: as §1

large (Lg) crabgrass [3] = experiment: Test A postemergence; format: in vivo, Digitaria sanguinalis
How it was run: as §3

sedge, umbrella = experiment: Test B flooded paddy test; format: in vivo, Cyperus difformis; conditions: Flood, 250 g ai/ha; 0 to 100 scale where 0 is no effect and 100 is complete control
How it was run: as §2

barnyardgrass [4] = experiment: Test A preemergence; format: in vivo, Echinochloa crus-galli
How it was run: as §3

yellow nutsedge = experiment: Test C postemergence; format: in vivo, Cyperus esculentus; conditions: for Plant response rating (0 to 100), Nutsedge, Yellow: postemergence; for Plant response rating, Nutsedge, Yellow: Postemergence, scale 0 to 100 (0 no effect, 100 complete control)
How it was run: as §1

[5] = 125 g ai/ha, 0 to 100 scale where 0 is no effect and 100 is complete control
[6] = 500 g ai/ha, 0 to 100 scale, 0 no effect, 100 complete control, approx. 10 days
[7] = 500 g ai/ha, 0 to 100 scale, 0 no effect, 100 complete control

SMILES: Fc1cnc(Oc2ccccc2-n2cc(C(F)(F)F)cn2)nc1 [Compound 47]
- Plant response rating (0 to 100), Lambsquarters (lambsquarters; 125 g ai/ha): 60
- Plant response rating (0 to 100), Lambsquarters (lambsquarters; 250 g ai/ha): 90
- Plant response rating, Lambsquarters (lambsquarters; 31 g ai/ha, 13 to 15 days): 30
- Plant response rating, Lambsquarters (lambsquarters; 62 g ai/ha): 45
- Plant response rating (0 to 100), Soybean (soybean; 125 g ai/ha): 65
- Plant response rating (0 to 100), Soybean (soybean; 250 g ai/ha): 65
- Plant response rating, Soybean (soybean; 31 g ai/ha, 13 to 15 days): 35
- Plant response rating, Soybean (soybean; 62 g ai/ha): 45
- Plant response rating (0 to 100), Ryegrass, Italian (Italian ryegrass; 125 g ai/ha): 0
- Plant response rating (0 to 100), Ryegrass, Italian (Italian ryegrass; 250 g ai/ha): 0
- Plant response rating, Ryegrass, Italian (Italian ryegrass; 31 g ai/ha, 13 to 15 days): 0
- Plant response rating, Ryegrass, Italian (Italian ryegrass; 62 g ai/ha): 0
- Plant response rating, Rice (rice): 35
- Plant response rating, Wheat (wheat; [5]): 0
- Wheat plant response rating (wheat; [6]): 40
- Plant response rating, Pigweed (pigweed; [5]): 100
- Plant response rating, Pigweed (pigweed; [7]): 100
- Plant response rating (0 to 100), Crabgrass, Large (large (Lg) crabgrass [1]; 125 g ai/ha): 5
- Plant response rating (0 to 100), Crabgrass, Large (large (Lg) crabgrass [1]; 250 g ai/ha): 10
- Plant response rating, Crabgrass, Large (large (Lg) crabgrass [1]; 31 g ai/ha, 13 to 15 days): 5
- Plant response rating, Crabgrass, Large (large (Lg) crabgrass [1]; 62 g ai/ha): 5
- Plant response rating (0 to 100), Blackgrass (blackgrass; 125 g ai/ha): 5
- Plant response rating (0 to 100), Blackgrass (blackgrass; 250 g ai/ha): 40
- Plant response rating, Blackgrass (blackgrass; 31 g ai/ha, 13 to 15 days): 0
- Plant response rating, Blackgrass (blackgrass; 62 g ai/ha): 0
- Plant response rating (0 to 100), Galium (galium; 125 g ai/ha): 55
- Plant response rating (0 to 100), Galium (galium; 250 g ai/ha): 65
- Plant response rating, Galium (galium; 31 g ai/ha, 13 to 15 days): 35
- Plant response rating, Galium (galium; 62 g ai/ha): 50
- Plant response rating (0 to 100), Ragweed (ragweed; 125 g ai/ha): 50
- Plant response rating (0 to 100), Ragweed (ragweed; 250 g ai/ha): 85
- Plant response rating, Ragweed (ragweed; 31 g ai/ha, 13 to 15 days): 20
- Plant response rating, Ragweed (ragweed; 62 g ai/ha): 50
- Plant response rating (0 to 100), Barnyardgrass (barnyardgrass [2]; 125 g ai/ha): 0
- Plant response rating (0 to 100), Barnyardgrass (barnyardgrass [2]; 250 g ai/ha): 5
- Plant response rating, Barnyardgrass (barnyardgrass [2]; 31 g ai/ha, 13 to 15 days): 0
- Plant response rating, Barnyardgrass (barnyardgrass [2]; 62 g ai/ha): 0
- Plant response rating, Crabgrass, Large (large (Lg) crabgrass [3]; [5]): 70
- Plant response rating, Crabgrass, Large (large (Lg) crabgrass [3]; [7]): 100
- Plant response rating, Sedge, Umbrella (sedge, umbrella): 70
- Plant response rating, Barnyardgrass (barnyardgrass [4]; [5]): 20
- Barnyardgrass plant response rating (barnyardgrass [4]; [6]): 100
- Plant response rating (0 to 100), Nutsedge, Yellow (yellow nutsedge; 125 g ai/ha): 0
- Plant response rating (0 to 100), Nutsedge, Yellow (yellow nutsedge; 250 g ai/ha): 10
- Plant response rating, Nutsedge, Yellow (yellow nutsedge; 31 g ai/ha, 13 to 15 days): 0
- Plant response rating, Nutsedge, Yellow (yellow nutsedge; 62 g ai/ha): 0
